The molecules below were run against T1, human DP1 receptor (Homo sapiens, UniProt Q13258) (assay: DP1 radioligand binding assay ([3H]BWA868C, platelet membranes)). Details: [3H]BWA868C binding, human platelet membranes; read-out: hDP1.
T1 construct: tissue Biological Specialty Corporation; host or cells: human platelet membranes
T1 sequence (Q13258 1-359): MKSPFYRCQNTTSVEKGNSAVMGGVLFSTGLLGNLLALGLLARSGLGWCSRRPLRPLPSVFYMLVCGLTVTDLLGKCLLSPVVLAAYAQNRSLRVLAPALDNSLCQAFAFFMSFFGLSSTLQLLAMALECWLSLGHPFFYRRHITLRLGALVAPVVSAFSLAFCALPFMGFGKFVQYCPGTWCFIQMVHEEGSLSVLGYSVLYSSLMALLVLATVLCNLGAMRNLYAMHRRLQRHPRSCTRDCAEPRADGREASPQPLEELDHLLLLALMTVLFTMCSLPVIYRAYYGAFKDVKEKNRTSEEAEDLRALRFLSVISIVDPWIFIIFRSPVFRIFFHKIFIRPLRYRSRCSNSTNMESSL
Method: The ability of a compound to bind to the human DPI receptor was evaluated via a radioligand membrane binding assay using the DP1 selective synthetic ligand [^311]BWA868C. Packed human platelets (Biological Specialty Corporation), were resuspended in 6 volumes of Hepes/HBSS buffer (10 mM Hepes, 1 mM DTT in Hanks Balanced Salt Solution (HBSS)), lysed and centrifuged at 75,000×g to pellet the membranes. Membranes were resuspended in Hepes/HBSS buffer to approximately 12 mg protein/ml. Membranes (20 μg protein/well) are incubated in 96-well plates with 2 nM [^3H]BWA868C and test compound in Assay Buffer (50 mM Hepes, 10 mM MnCl2, 1 mM EDTA, plus or minus 0.2% human serum albumin, pH 7.4) for 60 minutes at room temperature. The reactions are terminated by rapid filtration through Whatman GF/C glass fibre filter plates. The filter plates were pre-soaked in 0.33% polyethylenimine for 30 minutes at room temperature then washed in Wash Buffer (50 mM Hepes, 0.5 M NaCl pH 7.4) prior to harvesting. After harvesting, the filter plates are washed 3 times with 1 ml cold Wash Buffer then dried. Scintillant is then added to the plates and the radioactivity retained on the filters is determined on a Packard TopCount (Perkin Elmer). Specific binding is determined as total radioactive binding minus non-specific binding in the presence of 10 μM BW A868C. IC50s were determined using GraphPad prism analysis of drug titration curves.

IC50, 1 to 30 µM:
CCN(Cc1cc(F)ccc1-c1cc(CC(=O)O)ccc1OC)C(C)=O [Compound 1-184, {2′-[(Acetyl-ethyl-amino)-methyl]-4′-fluoro-6-methoxy-biphenyl-3-yl}-acetic acid]
CCN(Cc1cc(C(F)(F)F)ccc1-c1cc(CC(=O)O)ccc1OC)C(=O)OCc1ccc(F)cc1 [Compound 1-41, (2′-{[Ethyl-(4-fluoro-benzyloxycarbonyl)-amino]-methyl}-6-methoxy-4′-trifluoromethyl-biphenyl-3-yl)-acetic acid]
CCN(Cc1cc(C(F)(F)F)ccc1-c1cc(CC(=O)O)ccc1OC)C(=O)OCc1cc(Cl)cc(Cl)c1 [Compound 1-38, (2′-{[(3,5-Dichloro-benzyloxycarbonyl)-ethyl-amino]-methyl}-6-methoxy-4′-trifluoromethyl-biphenyl-3-yl)-acetic acid]
CCN(Cc1cc(C(F)(F)F)ccc1-c1cc(CC(=O)O)ccc1OC)C(=O)N[C@H](C)c1ccc(Cl)cc1 [Compound 1-179, (2′-{3-[(R)-1-(4-Chloro-phenyl)-ethyl]-1-ethyl-ureidomethyl}-6-methoxy-4′-trifluoromethyl-biphenyl-3-yl)-acetic acid]
CCN(Cc1ccccc1)C(=O)N(CC)Cc1cc(C(F)(F)F)ccc1-c1cc(CC(=O)O)ccc1OC [Compound 1-94, [2′-(3-Benzyl-1,3-diethyl-ureidomethyl)-6-methoxy-4′-trifluoromethyl-biphenyl-3-yl]-acetic acid]
CCN(Cc1cc(C(F)(F)F)ccc1-c1cc(CC(=O)O)ccc1OC)C(=O)OCc1ccccc1 [Compound 1-28, {2′-[(Benzyloxycarbonyl-ethyl-amino)-methyl]-6-methoxy-4′-trifluoromethyl-biphenyl-3-yl}-acetic acid]
COc1ccc(CC(=O)O)cc1-c1ccc(C(F)(F)F)cc1CN(C(C)=O)C1CCC1 [Compound 1-30, {2′-[(Acetyl-cyclobutyl-amino)-methyl]-6-methoxy-4′-trifluoromethyl-biphenyl-3-yl}-acetic acid]
CCN(Cc1cc(C(F)(F)F)ccc1-c1cc(CC(=O)O)ccc1OC)C(=O)NCc1ccc(F)cc1 [Compound 1-176, {2′-[1-Ethyl-3-(4-fluoro-benzyl)-ureidomethyl]-6-methoxy-4′-trifluoromethyl-biphenyl-3-yl}-acetic acid]
CCN(Cc1cc(C(F)(F)F)ccc1-c1cc(CC(=O)O)ccc1OC)C(C)=O [Compound 1-2, {2′-[(Acetyl-ethyl-amino)-methyl]-6-methoxy-4′-trifluoromethyl-biphenyl-3-yl}-acetic acid]
COc1ccc(CC(=O)O)cc1-c1ccc(C(F)(F)F)cc1CN(C(C)=O)C1CCCC1 [Compound 1-31, {2′-[(Acetyl-cyclopentyl-amino)-methyl]-6-methoxy-4′-trifluoromethyl-biphenyl-3-yl}-acetic acid]
CCN(Cc1cc(C(F)(F)F)ccc1-c1cc(CC(=O)O)ccc1OC)C(=O)NCc1ccccc1 [Compound 1-96, [2′-(3-Benzyl-1-ethyl-ureidomethyl)-6-methoxy-4′-trifluoromethyl-biphenyl-3-yl]-acetic acid]
CCN(Cc1cc(C(F)(F)F)ccc1-c1cc(CC(=O)O)ccc1OC)C(=O)COc1ccccc1 [Compound 1-48, (2′-{[Ethyl-(2-phenoxy-acetyl)-amino]-methyl}-6-methoxy-4′-trifluoromethyl-biphenyl-3-yl)-acetic acid]
CCN(Cc1cc(C(F)(F)F)ccc1-c1cc(CC(=O)O)ccc1OC)C(=O)OCc1cc(F)cc(F)c1 [Compound 1-40, (2′-{[(3,5-Difluoro-benzyloxycarbonyl)-ethyl-amino]-methyl}-6-methoxy-4′-trifluoromethyl-biphenyl-3-yl)-acetic acid]
CCN(Cc1cc(C(F)(F)F)ccc1-c1cc(CC(=O)O)ccc1OC)C(=O)C1CC1 [Compound 1-33, {2′-[(Cyclopropanecarbonyl-ethyl-amino)-methyl]-6-methoxy-4′-trifluoromethyl-biphenyl-3-yl}-acetic acid]
CCN(Cc1cc(C(F)(F)F)ccc1-c1cc(CC(=O)O)ccc1OC)C(=O)COc1ccc(Cl)cc1 [Compound 1-93, [2′-({[2-(4-Chloro-phenoxy)-acetyl]-ethyl-amino}-methyl)-6-methoxy-4′-trifluoromethyl-biphenyl-3-yl]-acetic acid]
CCN(Cc1cc(C(F)(F)F)ccc1-c1cc(CC(=O)O)ccc1OC)C(=O)NCc1cccc(Cl)c1 [Compound 1-177, {2′-[3-(3-Chloro-benzyl)-1-ethyl-ureidomethyl]-6-methoxy-4′-trifluoromethyl-biphenyl-3-yl}-acetic acid]
CCN(Cc1cc(F)ccc1-c1cc(CC(=O)O)ccc1OC)C(=O)OCc1ccccc1 [Compound 1-183, {2′-[(Benzyloxycarbonyl-ethyl-amino)-methyl]-4′-fluoro-6-methoxy-biphenyl-3-yl}-acetic acid]
CCN(Cc1cc(C(F)(F)F)ccc1-c1cc(CC(=O)O)ccc1OC)C(=O)NCc1ccc(Cl)c(Cl)c1 [Compound 1-152, {2′-[3-(3,4-Dichloro-benzyl)-1-ethyl-ureidomethyl]-6-methoxy-4′-trifluoromethyl-biphenyl-3-yl}-acetic acid]
COc1ccc(CC(=O)O)cc1-c1ccc(C(F)(F)F)cc1CN(C)C(C)=O [Compound 1-1, {2′-[(Acetyl-methyl-amino)-methyl]-6-methoxy-4′-trifluoromethyl-biphenyl-3-yl}-acetic acid]
CCN(Cc1cc(F)ccc1-c1cc(CC(=O)O)ccc1OC)C(=O)C1CC1 [Compound 1-186, {2′-[(Cyclopropanecarbonyl-ethyl-amino)-methyl]-4′-fluoro-6-methoxy-biphenyl-3-yl}-acetic acid]
CCN(Cc1cc(C(F)(F)F)ccc1-c1cc(CC(=O)O)ccc1Cl)C(=O)OCc1ccccc1 [Compound 1-110, {2′-[(Benzyloxycarbonyl-ethyl-amino)-methyl]-6-chloro-4′-trifluoromethyl-biphenyl-3-yl}-acetic acid]
CN(Cc1cc(C(F)(F)F)ccc1-c1cc(CC(=O)O)ccc1F)C(=O)OCc1ccccc1 [Compound 1-29, {2′-[(Benzyloxycarbonyl-methyl-amino)-methyl]-6-fluoro-4′-trifluoromethyl-biphenyl-3-yl}-acetic acid]
CCNC(=O)N(CC)Cc1cc(C(F)(F)F)ccc1-c1cc(CC(=O)O)ccc1OC [Compound 1-181, [2′-(1,3-Diethyl-ureidomethyl)-6-methoxy-4′-trifluoromethyl-biphenyl-3-yl]-acetic acid]
CCN(Cc1cc(C(F)(F)F)ccc1-c1cc(CC(=O)O)ccc1OC)C(=O)NCc1cc(Cl)cc(Cl)c1 [Compound 1-165, {2′-[3-(3,5-Dichloro-benzyl)-1-ethyl-ureidomethyl]-6-methoxy-4′-trifluoromethyl-biphenyl-3-yl}-acetic acid]
COc1ccc(CC(=O)O)cc1-c1ccc(C(F)(F)F)cc1CN(C)C(=O)OCc1ccccc1 [Compound 1-27, {2′-[(Benzyloxycarbonyl-methyl-amino)-methyl]-6-methoxy-4′-trifluoromethyl-biphenyl-3-yl}-acetic acid]
CCOc1ccc(CC(=O)O)cc1-c1ccc(C(F)(F)F)cc1CN(CC)C(=O)OCc1ccccc1 [Compound 1-129, {2′-[(Benzyloxycarbonyl-ethyl-amino)-methyl]-6-ethoxy-4′-trifluoromethyl-biphenyl-3-yl}-acetic acid]
COc1ccc(CC(=O)O)cc1-c1ccc(C(F)(F)F)cc1CN(CC(F)(F)F)C(C)=O [Compound 1-4, (2′-{[Acetyl-(2,2,2-trifluoro-ethyl)-amino]-methyl}-6-methoxy-4′-trifluoromethyl-biphenyl-3-yl)-acetic acid]
CCN(Cc1cc(C(F)(F)F)ccc1-c1cc(CC(=O)O)ccc1OC)C(=O)OCc1ccc(Cl)cc1 [Compound 1-42, (2′-{[(4-Chloro-benzyloxycarbonyl)-ethyl-amino]-methyl}-6-methoxy-4′-trifluoromethyl-biphenyl-3-yl)-acetic acid]

From US8067445B2, “N,N-disubstituted aminoalkylbiphenyl antagonists of prostaglandin D2 receptors” (Panmira Pharmaceuticals, LLC, priority 2008, dated 2011)
